“Also recorded” adds a separate entry of the source.
Experiments:
[1] = target: T1, Normal Human MDR1 P-glycoprotein (Homo sapiens, UniProt P08183); assay: ATPase activity assay (basal and verapamil-stimulated), P-gp in nanodiscs; type: biochemical; conditions: for Effect on stimulated ATPase / Stimulated ATPase: in the presence of verapamil; for Stimulated ATPase / Basal ATPase: ± standard deviation; for Effect on basal ATPase / Basal ATPase: no added transport substrate
T1 construct: made in house; host or cells: Pichia pastoris (P-gp); E. coli BL21 (DE3) (MSP1E3D1)
T1 sequence (P08183 whole entry): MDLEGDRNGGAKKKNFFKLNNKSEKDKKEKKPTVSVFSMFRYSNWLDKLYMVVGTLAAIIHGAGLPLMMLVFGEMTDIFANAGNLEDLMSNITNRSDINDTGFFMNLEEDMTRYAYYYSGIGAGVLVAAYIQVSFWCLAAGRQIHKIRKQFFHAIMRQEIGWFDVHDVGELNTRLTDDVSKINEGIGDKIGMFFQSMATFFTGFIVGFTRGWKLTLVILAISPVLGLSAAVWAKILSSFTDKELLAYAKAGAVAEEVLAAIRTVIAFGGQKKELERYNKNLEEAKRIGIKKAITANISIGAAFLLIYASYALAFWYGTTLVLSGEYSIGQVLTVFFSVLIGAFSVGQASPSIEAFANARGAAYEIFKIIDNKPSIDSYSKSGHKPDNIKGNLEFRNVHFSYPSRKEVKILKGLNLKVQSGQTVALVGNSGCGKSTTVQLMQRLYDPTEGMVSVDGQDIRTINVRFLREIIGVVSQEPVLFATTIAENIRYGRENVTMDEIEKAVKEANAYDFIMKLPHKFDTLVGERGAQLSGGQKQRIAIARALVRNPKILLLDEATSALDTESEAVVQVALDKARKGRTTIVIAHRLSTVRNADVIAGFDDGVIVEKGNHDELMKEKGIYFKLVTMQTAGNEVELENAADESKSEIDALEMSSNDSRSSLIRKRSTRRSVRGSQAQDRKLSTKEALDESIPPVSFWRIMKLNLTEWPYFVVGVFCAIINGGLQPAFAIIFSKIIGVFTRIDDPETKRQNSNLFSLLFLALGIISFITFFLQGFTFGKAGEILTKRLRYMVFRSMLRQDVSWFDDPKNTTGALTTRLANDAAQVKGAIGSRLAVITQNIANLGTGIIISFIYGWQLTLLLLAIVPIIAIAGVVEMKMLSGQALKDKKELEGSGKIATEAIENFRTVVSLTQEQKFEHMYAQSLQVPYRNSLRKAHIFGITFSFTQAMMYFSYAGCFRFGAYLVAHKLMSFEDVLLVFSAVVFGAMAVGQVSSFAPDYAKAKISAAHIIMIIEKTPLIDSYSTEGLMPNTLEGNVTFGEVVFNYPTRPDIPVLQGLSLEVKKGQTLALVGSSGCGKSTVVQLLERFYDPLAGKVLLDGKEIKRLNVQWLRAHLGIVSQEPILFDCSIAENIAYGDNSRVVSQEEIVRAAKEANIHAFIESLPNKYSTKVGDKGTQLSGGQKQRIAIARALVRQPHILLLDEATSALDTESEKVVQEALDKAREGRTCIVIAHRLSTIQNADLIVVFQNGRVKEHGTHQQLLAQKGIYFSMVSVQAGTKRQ
Excerpt: To assess whether the observed discrepancies of compounds stimulating basal P-gp ATPase activity but not being transport substrates of the human pump in the cell culture assessments were due to the fact that these biochemical assays used a cysteineless variant of the mouse MDR3 P-glycoprotein, the experiments were repeated using normal human MDR1 P-gp. In order to stabilize the human protein for the activity assays, the protein was assembled into membrane nanodiscs as described herein.
(§1) P-glycoprotein Purification. Cysteine-less MDR3 and the human normal MDR1 P-glycoprotein was recombinantly expressed in the yeast Pichia pastoris essentially as in^45, 46 and used for assaying ATP hydrolysis and ATP binding to the protein in the presence of the 29-variants. Purification of the protein was performed as described^49 with small modifications resulting in highly enriched P-gp in mixed micelles containing dodecyl maltoside (DDM) and lysophosphatidyl choline^26.
Nanodisc assembly. Human P-gp in mixed detergent micelles obtained during protein purification, was reconstituted into nanodiscsas described in references^73, 74 with small modifications. […] The detergent was removed with Bio-Beads™ SM-2 Adsorbent Media (BioRad). Ni-NTA Agarose (Qiagen) chromatography was used to purify P-gp reconstituted nanodiscs using 6 bed volumes of start buffer (20% (v/v) glycerol, 50 mM Tris-CL pH 7.5 at 4° C., 50 mM NaCl), and 5 bed volumes of elution buffer (20% (v/v) glycerol, 50 mM Tris-Cl pH 7.5 at 4° C., 50 mM NaCl, 300 mM imidazole).
(§2) ATPase Activity Assays. ATP hydrolysis activity was measured using a coupled enzyme assay^72 as modified in reference^26.

[2] = target: T2, P-gp-catalyzed transport of calcein AM in DU145TXR cells (Homo sapiens, UniProt P08183); assay: Calcein AM accumulation assay; type: cell-based; conditions: after 6-hour pre-incubation, compared to parental 29
T2 construct: DU145 human prostate cancer cells^52 as well as the multidrug resistant sub-line, DU145TXR; endogenous in cells; host or cells: DU145TXR (paclitaxel-selected sub-line of human DU145 prostate cancer cells)
T2 sequence (P08183 whole entry): as above
Procedure: Accumulation and cellular retention of calcein AM in P-gp overexpressing prostate cancer cells upon incubation with Group 1 SMU-29 variants. Calcein AM accumulation assays have been used by us previously to evaluate P-gp-substrate accumulation in real time in the presence or absence of P-gp inhibitors^28. For these assays, P-gp overexpressing DU145TXR cells were incubated with the respective inhibitors in the presence of the P-gp substrate, calcein AM. Inhibition of P-gp leads to cellular accumulation of calcein AM and to cleavage of its acetoxymethyl ester groups, resulting in the generation of the highly fluorescent compound, calcein. The anionic calcein is not a substrate of P-gp and remains in the cells. In these assays, the relative fluorescence of cellular calcein was measured over time and the results of these assays are shown in FIG. 13A. […]
Calcein AM assay. To assess inhibition of P-gp-catalyzed transport of the P-gp pump substrate, calcein AM, DU145TXR cells were seeded in 96 wells plates and allowed to grow in complete medium until confluency was reached. Medium was removed, and cells were treated […] P-gp inhibitory compounds and 1 μg/mL calcein AM (Life Technologies, OR) and diluted into phenol red free RPMI 1640 media. To study the effect of pre-incubation of compounds, cells were treated with just P-gp inhibitory compounds and incubated at 37° C. for six hours before adding calcein AM. Fluorescence excitation at 485 nm with a 20 nm gate and at emission at 535 nm with a 20 nm gate was measured using a BioTek Cytation 5 imaging multi-mode reader (Bio-Tek, Winooski, Vt.) over 60 minutes in 20 minute intervals. DMSO was used as vehicle. Results were plotted as the mean with standard deviation (SD) of six replicates per concentration and are representative of at least two independent experiments.

[3] = target: T3, Cysteineless Mouse MDR3 P-glycoprotein (Mus musculus, UniProt P21447, C1070A/C1121A/C1223A/C133A/C427A/C638A/C669A/C713A/C952A); assay: ATPase activity assay (basal and verapamil-stimulated), purified P-gp in mixed micelles; type: biochemical; conditions: for Effect on stimulated ATPase / Stimulated ATPase: in the presence of verapamil; for Stimulated ATPase / Basal ATPase: ± standard deviation; for Effect on basal ATPase / Stimulation of basal ATPase / Basal ATPase: no added transport substrate
T3 construct: made in house; host or cells: Pichia pastoris
T3 sequence (P21447 whole entry C133A/C427A/C638A/C669A/C713A/C952A/C1070A/C1121A/C1223A): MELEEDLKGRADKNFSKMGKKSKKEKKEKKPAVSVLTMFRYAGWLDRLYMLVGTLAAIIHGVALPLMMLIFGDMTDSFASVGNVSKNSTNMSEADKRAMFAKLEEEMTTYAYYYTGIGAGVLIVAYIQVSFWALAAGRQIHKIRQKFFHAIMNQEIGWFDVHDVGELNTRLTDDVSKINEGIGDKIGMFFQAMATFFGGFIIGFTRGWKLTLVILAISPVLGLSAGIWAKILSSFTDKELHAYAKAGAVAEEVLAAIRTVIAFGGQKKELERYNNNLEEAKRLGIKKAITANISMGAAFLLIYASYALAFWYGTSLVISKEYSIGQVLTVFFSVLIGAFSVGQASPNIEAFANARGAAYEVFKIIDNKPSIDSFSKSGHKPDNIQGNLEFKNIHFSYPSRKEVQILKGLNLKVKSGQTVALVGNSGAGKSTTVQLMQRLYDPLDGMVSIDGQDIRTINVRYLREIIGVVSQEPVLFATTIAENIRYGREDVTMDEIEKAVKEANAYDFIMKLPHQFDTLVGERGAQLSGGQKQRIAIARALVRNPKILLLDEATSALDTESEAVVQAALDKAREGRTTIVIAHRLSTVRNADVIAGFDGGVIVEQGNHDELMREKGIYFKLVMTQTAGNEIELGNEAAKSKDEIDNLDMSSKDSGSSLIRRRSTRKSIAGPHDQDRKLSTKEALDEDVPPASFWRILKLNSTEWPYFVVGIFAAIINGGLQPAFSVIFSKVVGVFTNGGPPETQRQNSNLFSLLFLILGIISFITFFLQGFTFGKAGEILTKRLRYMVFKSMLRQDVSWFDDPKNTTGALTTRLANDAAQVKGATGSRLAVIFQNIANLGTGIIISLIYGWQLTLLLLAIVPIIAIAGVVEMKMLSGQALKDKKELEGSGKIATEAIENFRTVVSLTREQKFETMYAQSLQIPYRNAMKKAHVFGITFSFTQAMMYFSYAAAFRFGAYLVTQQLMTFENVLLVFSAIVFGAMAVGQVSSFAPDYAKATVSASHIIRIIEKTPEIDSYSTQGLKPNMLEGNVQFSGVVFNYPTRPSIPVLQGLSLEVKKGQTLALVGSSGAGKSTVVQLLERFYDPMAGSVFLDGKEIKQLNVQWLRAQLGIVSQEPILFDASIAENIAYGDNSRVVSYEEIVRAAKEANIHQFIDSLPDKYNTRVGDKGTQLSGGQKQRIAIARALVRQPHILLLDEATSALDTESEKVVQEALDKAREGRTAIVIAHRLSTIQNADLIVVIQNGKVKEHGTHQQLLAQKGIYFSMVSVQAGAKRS
Procedure: Evaluation of mode of inhibition of P-glycoprotein by Group 1 and Group 2 variants of compound 29. To assess the mode of inhibition of P-gp by the novel variants of P-gp inhibitor 29, ATP hydrolysis by P-gp was evaluated in the presence or absence of the variants. […] Murine P-gp (MDR3) expressed in Pichia pastoris that had all naturally occurring cysteines replaced with alanine, was used^45, 46. It is widely assumed that the ATP hydrolytic rate of P-gp is stimulated in the presence of transport substrates when compared to ATP hydrolysis in the absence of transport substrates. Assays comparing these rates can therefore be useful not only in identifying inhibitors of P-gp catalyzed ATP hydrolysis, but also to potentially infer whether a compound might be a transport substrate if basal ATPase rates are stimulated by the addition of a compound.
as §1, §2

Molecule | Effect on stimulated ATPase [1] | Stimulated ATPase [1] | Effect on basal ATPase [1] | Basal ATPase [1] | Calcein accumulation in DU145TXR (in words) [2] | Stimulated ATPase [3] | Effect on basal ATPase [3] | Basal ATPase [3] | further results
COc1cc(NC(=O)CSCC(=O)Nc2cc(-c3cc(C)c(C)cc3C)nn2-c2ccccc2)cc(OC)c1OC [29-238, N-[1-phenyl-3-(2,4,5-trimethylphenyl)-1H-pyrazol-5-yl]-2-({[(3,4,5-trimethoxyphenyl)carbamoyl]methyl}sulfanyl)acetamide] | inhibitor | 61 ± 7 % of DMSO | none | 89 ± 7 % of DMSO | remained strongest | 194 ± 22 % of DMSO | stimulator | 1143 ± 46 % of DMSO | Effect on stimulated ATPase ([3]; listed as 238): about two-fold; Effect on stimulated ATPase ([3]; listed as SMU29-238): stimulator; Stimulation of basal ATPase [3]: ~10 fold
Cc1cc(C)c(-c2cc(NC(=O)CSc3cccc(NC(=O)c4cncc(Br)c4)c3)n(-c3ccccc3)n2)cc1C [29-551, 5-bromo-N-(3-((2-oxo-2-((1-phenyl-3-(2,4,5-trimethylphenyl)-1H-pyrazol-5-yl)amino)ethyl)thio)phenyl)nicotinamide] | inhibitor | 27 ± 1 % of DMSO | inhibitor | 72 ± 9 % of DMSO | equivalent to 29 in efficacy | 62 ± 5 % of DMSO | – | 150 ± 6 % of DMSO | Effect on stimulated ATPase ([3]; listed as 551): inhibited activity similar to parental compound 29; also recorded: inhibited verapamil-stimulated ATPase activity; Effect on stimulated ATPase ([3]; listed as SMU29-551): inhibitor; Effect on basal ATPase ([3]; listed as 551): stimulated basal ATPase activity; Effect on basal ATPase ([3]; listed as SMU29-551): stimulator
Cc1cc(C)c(-c2cc(NC(=O)CSCC(=O)Nc3ccc4ccccc4c3)n(-c3ccccc3)n2)cc1C [29-231, 2-({[(naphthalen-2-yl)carbamoyl]methyl}sulfanyl)-N-[1-phenyl-3-(2,4,5-trimethylphenyl)-1H-pyrazol-5-yl]acetamide] | inhibitor | 40 ± 3 % of DMSO | inhibitor | 70 ± 4 % of DMSO | – | 141 ± 18 % of DMSO | – | 70 ± 0 % of DMSO | Effect on stimulated ATPase ([3]; listed as 231): slightly stimulated; Effect on stimulated ATPase ([3]; listed as SMU26-231): stimulator; Effect on basal ATPase ([3]; listed as SMU26-231): inhibitor
Cc1cc(C)c(-c2cc(NC(=O)CSCC(=O)NCc3ccc(F)cc3)n(-c3ccccc3)n2)cc1C [29-286] | inhibitor | 59 ± 4 % of DMSO | none | 95 ± 3 % of DMSO | comparable to 29 | 98 ± 2 % of DMSO | – | 143 ± 32 % of DMSO | Effect on stimulated ATPase ([3]; listed as 286): no significant effect; also recorded: little effect; Effect on stimulated ATPase ([3]; listed as SMU29-286): none; Effect on basal ATPase ([3]; listed as 286): only marginally or with no statistical significance; Effect on basal ATPase ([3]; listed as SMU29-286): none
Cc1cc(C)c(-c2cc(NC(=O)CSCC(=O)Nc3ccc4ncsc4c3)n(-c3ccccc3)n2)cc1C [29-255, 2-({[(1,3-benzothiazol-6-yl)carbamoyl]methyl}sulfanyl)-N-[1-phenyl-3-(2,4,5 trimethylphenyl)-1H-pyrazol-5-yl]acetamide] | inhibitor | 59 ± 6 % of DMSO | none | 84 ± 9 % of DMSO | remained strongest | 123 ± 15 % of DMSO | stimulator | 355 ± 7 % of DMSO | Effect on stimulated ATPase ([3]; listed as SMU29-255): none; Stimulation of basal ATPase [3]: ~3 fold
Cc1cc(C)c(-c2cc(NC(=O)CSc3nnc(C4CC4)[nH]3)n(-c3ccccc3)n2)cc1C [compound 29, reference compound] | inhibitor | 62 ± 3 % of DMSO | none | 88 ± 9 % of DMSO | – | 49 ± 2 % of DMSO | none | 95 ± 11 % of DMSO | Effect on stimulated ATPase [3]: inhibitor
2-{[2-(9H-flouoren-2-yl)-2-oxoethyl]}-N-[1-phenyl-3-(2,4,5-trimethylphenyl0-1H-pyrazol-5-yl]acetamide [29-216] | inhibitor | 64 ± 6 % of DMSO | inhibitor | 69 ± 8 % of DMSO | – | 108 ± 2 % of DMSO | – | 105 ± 7 % of DMSO | Effect on stimulated ATPase ([3]; listed as 216): did not affect; also recorded: little effect; Effect on stimulated ATPase ([3]; listed as SMU29-216): none; Effect on basal ATPase ([3]; listed as 216): did not significantly affect; also recorded: did not activate; Effect on basal ATPase ([3]; listed as SMU29-216): none
Cc1cc(C)c(-c2cc(NC(=O)CSCC(=O)N3c4ccccc4CCc4ccccc43)n(-c3ccccc3)n2)cc1C [29-227, 2-[(2-{2-azatricyclo[9.4.0.0]pentadeca-1(11),3(8},4,6,12,14-hexaen-2-yl)-2-oxoethyl)sulfanyl]-N-[1-phenyl-3-(2,4,5-trimethylphenyl)-1H-pyrazol-5-yl]acetamide] | inhibitor | 62 ± 5 % of DMSO | none | 83 ± 7 % of DMSO | – | 50 ± 2 % of DMSO | – | 88 ± 4 % of DMSO | Effect on stimulated ATPase ([3]; listed as 227): inhibited activity similar to parental compound 29; also recorded: inhibited verapamil-stimulated ATPase activity; Effect on stimulated ATPase ([3]; listed as SMU29-227): inhibitor; Effect on basal ATPase ([3]; listed as 227): did not significantly affect; also recorded: did not activate; Effect on basal ATPase ([3]; listed as SMU29-227): none

Reference: patent publication US20210134398A1, “Combinatorial Chemistry Computational System and Enhanced Selection Method” (Southern Methodist University, priority 2019, published 2021)
